According to PubChem BioAssay (NCI):
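96-well plates; 48 h exposure; 5 concentrations. Endpoints by linear interpolation between flanking doses. Not reached: highest tested concentration assigned. GI50 marks 50% less growth. At the TGI there is no net growth.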

What was measured:
Experiment in all cases: inhibition of tumour cell growth, NCI panel, 48 h
SF-295 CNS = tested on: SF-295 CNS
RXF 393 renal = tested on: RXF 393 renal
SW-620 colon = tested on: SW-620 colon
NCI-H23 lung = tested on: NCI-H23 lung
IGROV1 ovarian = tested on: IGROV1 ovarian
K-562 leukemia = tested on: K-562 leukemia
SK-OV-3 ovarian = tested on: SK-OV-3 ovarian
OVCAR-5 ovarian = tested on: OVCAR-5 ovarian
NCI-H460 lung = tested on: NCI-H460 lung
COLO 205 colon = tested on: COLO 205 colon
UACC-62 melanoma = tested on: UACC-62 melanoma
UO-31 renal = tested on: UO-31 renal
NCI-H226 lung = tested on: NCI-H226 lung
MOLT-4 leukemia = tested on: MOLT-4 leukemia
HOP-92 NSCLC = tested on: HOP-92 NSCLC
RPMI-8226 leukemia = tested on: RPMI-8226 leukemia
SK-MEL-28 melanoma = tested on: SK-MEL-28 melanoma
U251 CNS = tested on: U251 CNS
SR leukemia = tested on: SR leukemia
SN12C renal = tested on: SN12C renal
CCRF-CEM leukemia = tested on: CCRF-CEM leukemia
MCF7 breast = tested on: MCF7 breast
T-47D breast = tested on: T-47D breast
SNB-75 CNS = tested on: SNB-75 CNS
HT29 colon = tested on: HT29 colon
NCI-H522 lung = tested on: NCI-H522 lung
SNB-19 CNS = tested on: SNB-19 CNS
MDA-MB-435 = tested on: MDA-MB-435
MDA-MB-231 breast = tested on: MDA-MB-231 breast
SF-539 CNS = tested on: SF-539 CNS
MDA-MB-468 breast = tested on: MDA-MB-468 breast
MALME-3M melanoma = tested on: MALME-3M melanoma
HCC-2998 colon = tested on: HCC-2998 colon
786-0 renal = tested on: 786-0 renal
CAKI-1 renal = tested on: CAKI-1 renal
SK-MEL-2 melanoma = tested on: SK-MEL-2 melanoma
LOX IMVI melanoma = tested on: LOX IMVI melanoma
OVCAR-4 ovarian = tested on: OVCAR-4 ovarian
DU-145 prostate = tested on: DU-145 prostate
TK-10 renal = tested on: TK-10 renal
SK-MEL-5 melanoma = tested on: SK-MEL-5 melanoma
UACC-257 melanoma = tested on: UACC-257 melanoma
HCT-15 colon = tested on: HCT-15 colon
PC-3 prostate = tested on: PC-3 prostate
A498 renal = tested on: A498 renal
ACHN renal = tested on: ACHN renal
HS 578T breast = tested on: HS 578T breast
OVCAR-8 ovarian = tested on: OVCAR-8 ovarian
SF-268 CNS = tested on: SF-268 CNS
HL-60(TB) leukemia = tested on: HL-60(TB) leukemia
A549 NSCLC = tested on: A549 NSCLC
KM12 colon = tested on: KM12 colon
EKVX NSCLC = tested on: EKVX NSCLC
OVCAR-3 ovarian = tested on: OVCAR-3 ovarian
HOP-62 NSCLC = tested on: HOP-62 NSCLC
M14 melanoma = tested on: M14 melanoma
HCT-116 colon = tested on: HCT-116 colon
BT-549 breast = tested on: BT-549 breast

Compound `CC(=O)Oc1ccccc1C(=O)[Se]C(=NC1CCCCC1)NC1CCCCC1` has a GI50 (SF-295 CNS) of 1610 nM, a TGI (SF-295 CNS) of 3160 nM and a GI50 (RXF 393 renal) of 1670 nM. The TGI (RXF 393 renal) was 3040 nM, the GI50 (SW-620 colon) was 1790 nM and the TGI (SW-620 colon) was 3370 nM. For the same compound, the GI50 (NCI-H23 lung) was 1660 nM, the TGI (NCI-H23 lung) was 3200 nM and the GI50 (IGROV1 ovarian) was 1760 nM. It also gave a TGI (IGROV1 ovarian) of 3170 nM, a GI50 (K-562 leukemia) of 2090 nM and a TGI (K-562 leukemia) of 5210 nM. The GI50 (SK-OV-3 ovarian) was 1690 nM, the TGI (SK-OV-3 ovarian) was 3180 nM and the GI50 (OVCAR-5 ovarian) was 1690 nM. The TGI (OVCAR-5 ovarian) was 3230 nM, the GI50 (NCI-H460 lung) was 1980 nM and the TGI (NCI-H460 lung) was 4370 nM. The GI50 (COLO 205 colon) was 1950 nM, the TGI (COLO 205 colon) was 4360 nM and the GI50 (UACC-62 melanoma) was 1670 nM. It also gave a TGI (UACC-62 melanoma) of 3290 nM, a GI50 (UO-31 renal) of 1620 nM and a TGI (UO-31 renal) of 2970 nM. The GI50 (NCI-H226 lung) was 1600 nM, the TGI (NCI-H226 lung) was 3210 nM and the GI50 (MOLT-4 leukemia) was 2390 nM. The TGI (MOLT-4 leukemia) was 5560 nM, the GI50 (HOP-92 NSCLC) was 1810 nM and the TGI (HOP-92 NSCLC) was 4230 nM. The GI50 (RPMI-8226 leukemia) was 2160 nM, the TGI (RPMI-8226 leukemia) was 5390 nM and the GI50 (SK-MEL-28 melanoma) was 1760 nM. The TGI (SK-MEL-28 melanoma) was 3270 nM, the GI50 (U251 CNS) was 1720 nM and the TGI (U251 CNS) was 3360 nM. For the same compound, the GI50 (SR leukemia) was 1960 nM, the TGI (SR leukemia) was 4710 nM and the GI50 (SN12C renal) was 1730 nM. The TGI (SN12C renal) was 3120 nM, the GI50 (CCRF-CEM leukemia) was 2030 nM and the TGI (CCRF-CEM leukemia) was 5050 nM. It also gave a GI50 (MCF7 breast) of 1820 nM, a TGI (MCF7 breast) of 3400 nM and a GI50 (T-47D breast) of 2000 nM. For the same compound, the TGI (T-47D breast) was 5170 nM, the GI50 (SNB-75 CNS) was 1370 nM and the TGI (SNB-75 CNS) was 2780 nM. It also gave a GI50 (HT29 colon) of 2190 nM, a TGI (HT29 colon) of 5480 nM and a GI50 (NCI-H522 lung) of 1560 nM. It also gave a TGI (NCI-H522 lung) of 3030 nM, a GI50 (SNB-19 CNS) of 1670 nM and a TGI (SNB-19 CNS) of 3100 nM. The GI50 (MDA-MB-435) was 1790 nM, the TGI (MDA-MB-435) was 3330 nM and the GI50 (MDA-MB-231 breast) was 1850 nM. For the same compound, the TGI (MDA-MB-231 breast) was 3580 nM, the GI50 (SF-539 CNS) was 1670 nM and the TGI (SF-539 CNS) was 3040 nM. The GI50 (MDA-MB-468 breast) was 1750 nM, the TGI (MDA-MB-468 breast) was 3320 nM and the GI50 (MALME-3M melanoma) was 1730 nM. The TGI (MALME-3M melanoma) was 3200 nM, the GI50 (HCC-2998 colon) was 1720 nM and the TGI (HCC-2998 colon) was 3120 nM. For the same compound, the GI50 (786-0 renal) was 1760 nM, the TGI (786-0 renal) was 3160 nM and the GI50 (CAKI-1 renal) was 1690 nM. The TGI (CAKI-1 renal) was 3110 nM, the GI50 (SK-MEL-2 melanoma) was 1640 nM and the TGI (SK-MEL-2 melanoma) was 3150 nM. For the same compound, the GI50 (LOX IMVI melanoma) was 1650 nM, the TGI (LOX IMVI melanoma) was 3100 nM and the GI50 (OVCAR-4 ovarian) was 1740 nM. The TGI (OVCAR-4 ovarian) was 3300 nM, the GI50 (DU-145 prostate) was 1790 nM and the TGI (DU-145 prostate) was 3280 nM. For the same compound, the GI50 (TK-10 renal) was 1640 nM, the TGI (TK-10 renal) was 3030 nM and the GI50 (SK-MEL-5 melanoma) was 1630 nM. It also gave a TGI (SK-MEL-5 melanoma) of 3060 nM, a GI50 (UACC-257 melanoma) of 1680 nM and a TGI (UACC-257 melanoma) of 3150 nM. It also gave a GI50 (HCT-15 colon) of 1780 nM, a TGI (HCT-15 colon) of 3560 nM and a GI50 (PC-3 prostate) of 1830 nM. For the same compound, the TGI (PC-3 prostate) was 3620 nM, the GI50 (A498 renal) was 2310 nM and the TGI (A498 renal) was 6730 nM. The GI50 (ACHN renal) was 1790 nM, the TGI (ACHN renal) was 3270 nM and the GI50 (HS 578T breast) was 2050 nM. For the same compound, the TGI (HS 578T breast) was 5370 nM, the GI50 (OVCAR-8 ovarian) was 1720 nM and the TGI (OVCAR-8 ovarian) was 3140 nM. The GI50 (SF-268 CNS) was 2330 nM, the TGI (SF-268 CNS) was 5680 nM and the GI50 (HL-60(TB) leukemia) was 1950 nM. The TGI (HL-60(TB) leukemia) was 4710 nM, the GI50 (A549 NSCLC) was 3010 nM and the TGI (A549 NSCLC) was 10600 nM. The GI50 (KM12 colon) was 1830 nM, the TGI (KM12 colon) was 3390 nM and the GI50 (EKVX NSCLC) was 1650 nM. For the same compound, the TGI (EKVX NSCLC) was 3060 nM, the GI50 (OVCAR-3 ovarian) was 1840 nM and the TGI (OVCAR-3 ovarian) was 3390 nM. The GI50 (HOP-62 NSCLC) was 1700 nM, the TGI (HOP-62 NSCLC) was 3360 nM and the GI50 (M14 melanoma) was 1690 nM. The TGI (M14 melanoma) was 3190 nM, the GI50 (HCT-116 colon) was 1900 nM and the TGI (HCT-116 colon) was 3730 nM. It also gave a GI50 (BT-549 breast) of 1640 nM and a TGI (BT-549 breast) of 3070 nM.
